Data on one molecule can be found in PMC9227536, “Prediction of Pharmacokinetics of IDP-73152 in Humans Using Physiologically-Based Pharmacokinetics” (Pharmaceutics, 2022).

The structures appear in SMILES notation. Like-named read-outs stand apart in the source and are kept apart here.

The nature of data set [1]: PK study in mice (intravenous and oral). The format is in vivo, male ICR mice. The method, then: The in vivo experimental protocol was approved by the Institutional Animal Care and Use Committee of Research Laboratory at Ildong pharmaceutical Co., Ltd. (Ref. No.: IDL-PDF-001 and 09005-11004). Animals were acclimatized to the laboratory conditions for at least 1 week before the experiments and were kept in the standardized conditions (20–25 °C, 55 ± 5% humidity, and a 12 h light/dark cycle). The animals fasted overnight prior to drug administration, and food was resupplied 4 h post-dose. In this study, a single dose of IDP-73152 at 10 mg/kg (i.e., the injection volume of 5 mL/kg, IDP-73152 dissolved in saline) was intravenously administered to male ICR mice (body weight 18.2–21.4 g, Orient Bio Inc., Seongnam, Korea) via the tail vein. […] Blood samples (100 μL) were collected from the retroorbital plexus at 0.167, 0.333, 0.5, 1, 2, 4, or 8 h after the administration. Plasma was separated/collected from the blood samples by centrifugation for 5 min at 10,000× g/4 °C and stored at −80 °C until analysis. When necessary for a model independent PK analysis, a standard moment analysis was carried out with WinNonlin software using either representative (for the study with mice) or individual (for the study with rats, dogs, and humans) concentration–time profile(s). For the calculation of PBPK models, Berkeley Madonna 8.3.18 (Albany, CA, USA) was used with the fourth-order Runge–Kutta method for numerical integration.

A short description of data set [2]: Metabolic stability in liver microsomes, mouse. The format is in vitro ADME. How it is done: In this study, the metabolic stability of IDP-73152 in microsomes from mice, rats, dogs, and humans, as well as rat hepatocytes, was determined. For a microsomal incubation study, the incubation mixtures, containing mouse, rat, dog, or human liver microsomes at a protein concentration of 0.5 mg/mL, 3.3 mM MgCl2, and 1.3 mM NADPH, in a 100 mM potassium phosphate buffer (pH 7.4), were preincubated for 3 min at 37 °C. In parallel, a control incubation mixture (i.e., identical composition to that of the incubation mixture without NADPH) was also prepared for comparison. The reaction was initiated by the addition of a 10 × solution of IDP-73152 (final concentration in mixtures of 1 μM) to the incubation mixtures or the control incubation mixtures. The mixtures were incubated in a shaking water bath (37 °C, 90 rpm). Aliquots (30 μL) were collected at 0, 15, 30, and 45 min from the mixture and the reaction was terminated by the addition of a 4-fold volume of ice-cold acetonitrile to the sample. The mixture was then vortexed for 5 min and centrifuged for 10 min at 10,000× g. The supernatant was collected and stored at -80 °C until the analysis. For the hepatocyte incubation study, rat hepatocytes were freshly prepared using the two-step collagenase perfusion method with slight modifications. After the isolation, cell viability during the preparation process was first determined by a trypan blue exclusion assay prior to the stability study. The preparation was considered adequate for subsequent studies if the viability was greater than 80%. When appropriate, the hepatocytes were resuspended in Williams' media E containing 10% fetal bovine serum, 1% penicillin-streptomycin, and 0.01% insulin-transferrin-selenium (i.e., 10 mg/mL insulin, 5.5 mg/mL transferrin, and 5 mg/mL selenium) at pH 7.4. The reaction was carried out with the hepatocyte suspension prepared at 1 × 10^6 cells/mL (0.5 mL) and initiated by the addition of equal volume of IDP-73152 solution (i.e., final concentration of the compound at 1 μM in 0.5 × 10^6 cells/mL of hepatocytes) to the hepatocyte suspension. […] Assuming first-order disappearance kinetics, the slope k of the logarithmically transformed IDP-73152 concentration in the sample versus time plot was determined by the linear regression analysis of the data. The total intrinsic clearance (CLint,mic, μL/min/mg protein for microsomal incubation study and CLint,hep, μL/min/million cells for hepatocytes incubation study) was then calculated using the following equations:(4) CLint, mic=k×Volume of incubation medium (μL)/Protein in incubation medium (mg) (5) CLint,hep=k×Volume of incubation (μL)/Number of cells in incubation (×10^6) The unbound intrinsic clearance, with respect to the whole liver ([…]), was then estimated for the two cases. […]

The nature of data set [3]: Unbound fraction in plasma (rapid equilibrium dialysis), dog. The class given is in vitro ADME. The note with it: dogs plasma, 0.3, 1, 3 μM, RED 5 h, read-out: fu,p. The method, then: The unbound fractions of IDP-73152 in various matrices were measured according to the manufacturer’s instructions for the rapid equilibrium dialysis (RED) device (ThermoFisher Scientific, Waltham, MA, USA). Briefly, IDP-73152 was added to the plasma or the microsomal/hepatocyte incubation buffer from various species (i.e., mouse, rat, dog, and human for microsomal incubation; rat for hepatocyte incubation) to obtain final concentrations of the compound at 0.3, 1, and 3 μM. After the membrane insert was placed in the RED plate, the solution containing IDP-73152 was added (400 µL) to the sample chamber, and the dialysis buffer (600 μL) was added to the buffer chamber. The RED plate was sealed with parafilm and then incubated at 37 °C in the orbital shaker (Lab Companion, Daejeon, Korea) at 100 rpm for 5 h. After a 50 μL aliquot was aspirated from both the sample and buffer chambers, an equal volume of protein-free buffer or blank medium was replaced in the aspirated sample or buffer to render the matrices compositionally identical. The IDP-73152 concentration in the buffer/sample chambers (i.e., CBuffer Chamber and CSample Chamber) was determined by an assay. Thus, the fraction unbound was defined as:(2) % Fraction unbound=(CBuffer Chamber/CSample Chamber)×100%
For orientation: In equilibrium dialysis only unbound substance equilibrates across the membrane.

[4] abbreviates: male, ICR, mouse, plasma, oral 20 mg/kg.

In general, AUC(0-inf) refers to the area under the concentration-time curve extrapolated to infinity. A lower AUC(0-inf) goes with less exposure. By Cmax is commonly meant the peak of the concentration-time curve. In general, Tmax refers to the time at which the peak concentration occurs. In general, bioavailability refers to dose-corrected exposure relative to a reference, in per cent.

In the case of `CC(C)(C)[C@H](NC(=O)[C@H](CC1CCCC1)CN(O)C=O)C(=O)N1CCC(NCc2cc(F)c(F)cc2F)CC1` [IDP-73152], the Vd in data set [1] (male, ICR, mouse, plasma, intravenous 10 mg/kg, moment analysis, read-out: Vss) amounted to 1.43 L/kg. Besides, the half-life in data set [1] (male, ICR, mouse, plasma, intravenous 10 mg/kg, read-out: t1/2 (converted)) was 43.9 min; in data set [1] (male, ICR, mouse, plasma, oral 20 mg/kg, read-out: t1/2 (terminal phase half-life) (converted)) it was 172 min. Besides, the clearance in data set [1] (male, ICR, mouse, plasma, intravenous 10 mg/kg, representative concentration–time profile, read-out: CLp (converted)) is 25.3 mL/min/kg. For the same molecule, the AUC(0-inf) in data set [1] (male, ICR, mouse, plasma, iv, 10 mg/kg, intravenous 10 mg/kg) is 6590 ng·h/mL; in data set [1] (male, ICR, mouse, plasma, po, 20 mg/kg, oral 20 mg/kg), 10900 ng·h/mL. Moreover, in data set [1] (setting [4]), the maximum concentration (Cmax) came to 3100 ng/mL. The Tmax in data set [1] (setting [4]) amounted to 20 min. For the same molecule, the bioavailability in data set [1] (male, ICR, mouse, plasma, oral 20 mg/kg vs intravenous 10 mg/kg, read-out: F (bioavailability)) was found to be 78.1%. In addition, the AUCinf in data set [1] (oral 20 mg/kg, 20 mg/kg) turned out to be 10.3 µg·h/mL. Besides, the “hepatic ER (extraction ratio)” value in data set [2] (mice, from microsomal clearance, well-stirred model) is reported as 0.102 ± 0.002. In addition, the “CLu,int,H” value in data set [2] (mice, scaled up to the whole liver from microsomes) amounted to 0.539 ± 0.011 L/h. The CLhep predicted at 1 μM in data set [2] (mouse, liver microsomes, pH 7.4, mice, read-out: CLh calculated from the CLint,mic (converted)) was 22.7 mL/min/kg. For the same molecule, the microsomal CLint at 1 μM in data set [2] (mouse, pH 7.4, mice liver microsomes 0.5 mg/mL, 1 μM, read-out: CLint,mic) worked out at 80.1 ± 1.7 µL/min/mg. The fraction unbound at 5 h in data set [3] was 0.0547 ± 0.0053.
